What was measured:
T-47D = assay: NCI in vitro DTP human cell line screen, T-47D; assay type: cell-based; conditions: Breast Cancer, 1.00E−5 Molar
Experimental: (§1) Then, a cell toxicity assay of the cancer lines made by National Cancer Institute will be discussed as follows. The cell toxicity assay is performed by choosing ten compounds (existing certification numbers) from the 59 compounds disclosed in the present invention first.

SF-268 = assay: NCI in vitro DTP human cell line screen, SF-268; assay type: cell-based; conditions: CNS Cancer, 1.00E−5 Molar
Experimental: as §1

DU145 = assay: NCI in vitro DTP human cell line screen, DU145; assay type: cell-based; conditions: Prostate Cancer, 1.00E−5 Molar
Experimental: as §1

786-0 = assay: NCI in vitro DTP human cell line screen, 786-0; assay type: cell-based; conditions: Renal Cancer, 1.00E−5 Molar
Experimental: as §1

LOX IMVI = assay: NCI in vitro DTP human cell line screen, LOX IMVI; assay type: cell-based; conditions: Melanoma, 1.00E−5 Molar
Experimental: as §1

NCI-H322M = assay: NCI in vitro DTP human cell line screen, NCI-H322M; assay type: cell-based; conditions: Non-Small Cell Lung Cancer, 1.00E−5 Molar
Experimental: as §1

HT29 = assay: NCI in vitro DTP human cell line screen, HT29; assay type: cell-based; conditions: Colon Cancer, 1.00E−5 Molar
Experimental: as §1

A3 cell lines = assay: MTT assay, A3 cell lines (lung cancer stem cell); assay type: cell-based
Excerpt: Please to FIG. 4B, various cell viabilities of the A3 cell lines can be obtained through the MTT assay and illustrated in FIG. 4B while the compounds No. 1˜30 are used to treat A3 cell lines, wherein A3 cell lines are lung cancer stem cell.

UACC-257 = assay: NCI in vitro DTP human cell line screen, UACC-257; assay type: cell-based; conditions: Melanoma, 1.00E−5 Molar
Experimental: as §1

SNB-75 = assay: NCI in vitro DTP human cell line screen, SNB-75; assay type: cell-based; conditions: CNS Cancer, 1.00E−5 Molar
Experimental: as §1

MDA-MB-435 = assay: NCI in vitro DTP human cell line screen, MDA-MB-435; assay type: cell-based; conditions: Melanoma, 1.00E−5 Molar
Experimental: as §1

HOP-62 = assay: NCI in vitro DTP human cell line screen, HOP-62; assay type: cell-based; conditions: Non-Small Cell Lung Cancer, 1.00E−5 Molar
Experimental: as §1

MCF7 = assay: NCI in vitro DTP human cell line screen, MCF7; assay type: cell-based; conditions: Breast Cancer, 1.00E−5 Molar
Experimental: as §1

NCI/ADR-RES = assay: NCI in vitro DTP human cell line screen, NCI/ADR-RES; assay type: cell-based; conditions: Ovarian Cancer, 1.00E−5 Molar
Experimental: as §1

SK-MEL-2 = assay: NCI in vitro DTP human cell line screen, SK-MEL-2; assay type: cell-based; conditions: Melanoma, 1.00E−5 Molar
Experimental: as §1

SK-MEL-5 = assay: NCI in vitro DTP human cell line screen, SK-MEL-5; assay type: cell-based; conditions: Melanoma, 1.00E−5 Molar
Experimental: as §1

RXF 393 = assay: NCI in vitro DTP human cell line screen, RXF 393; assay type: cell-based; conditions: Renal Cancer, 1.00E−5 Molar
Experimental: as §1

K562 = assay: NCI in vitro DTP human cell line screen, K562; assay type: cell-based; conditions: Leukemia, 1.00E−5 Molar
Experimental: as §1

NCI-H460 = assay: NCI in vitro DTP human cell line screen, NCI-H460; assay type: cell-based; conditions: Non-Small Cell Lung Cancer, 1.00E−5 Molar
Experimental: as §1

KM12 = assay: NCI in vitro DTP human cell line screen, KM12; assay type: cell-based; conditions: Colon Cancer, 1.00E−5 Molar
Experimental: as §1

HOP-92 = assay: NCI in vitro DTP human cell line screen, HOP-92; assay type: cell-based; conditions: Non-Small Cell Lung Cancer, 1.00E−5 Molar
Experimental: as §1

SW-620 = assay: NCI in vitro DTP human cell line screen, SW-620; assay type: cell-based; conditions: Colon Cancer, 1.00E−5 Molar
Experimental: as §1

SF-295 = assay: NCI in vitro DTP human cell line screen, SF-295; assay type: cell-based; conditions: CNS Cancer, 1.00E−5 Molar
Experimental: as §1

SNB-19 = assay: NCI in vitro DTP human cell line screen, SNB-19; assay type: cell-based; conditions: CNS Cancer, 1.00E−5 Molar
Experimental: as §1

NCI-H23 = assay: NCI in vitro DTP human cell line screen, NCI-H23; assay type: cell-based; conditions: Non-Small Cell Lung Cancer, 1.00E−5 Molar
Experimental: as §1

OVCAR-4 = assay: NCI in vitro DTP human cell line screen, OVCAR-4; assay type: cell-based; conditions: Ovarian Cancer, 1.00E−5 Molar
Experimental: as §1

RPMI-8226 = assay: NCI in vitro DTP human cell line screen, RPMI-8226; assay type: cell-based; conditions: Leukemia, 1.00E−5 Molar
Experimental: as §1

HCT-116 = assay: NCI in vitro DTP human cell line screen, HCT-116; assay type: cell-based; conditions: Colon Cancer, 1.00E−5 Molar
Experimental: as §1

MOLT-4 = assay: NCI in vitro DTP human cell line screen, MOLT-4; assay type: cell-based; conditions: Leukemia, 1.00E−5 Molar
Experimental: as §1

A control cell lines = assay: MTT assay, A control cell lines (lung cancer cell); assay type: cell-based
Excerpt: Please refer to Table 1 and FIGS. 4A-4C. According to a MTT assay (Table 1), various cell viabilities of the A control cell lines can be obtained and illustrated in FIG. 4A while the compounds No. 2˜30 are used to treat A control cell lines, wherein A control cell lines are lung cancer cell.

ACHN = assay: NCI in vitro DTP human cell line screen, ACHN; assay type: cell-based; conditions: Renal Cancer, 1.00E−5 Molar
Experimental: as §1

60 cancer lines = assay: NCI cell toxicity assay of 60 cancer lines, whole panel summary; assay type: cell-based, human; conditions: mean over all cell lines; 1.00E−5 Molar
Experimental: as §1

SF-539 = assay: NCI in vitro DTP human cell line screen, SF-539; assay type: cell-based; conditions: CNS Cancer, 1.00E−5 Molar
Experimental: as §1

COLO 205 = assay: NCI in vitro DTP human cell line screen, COLO 205; assay type: cell-based; conditions: Colon Cancer, 1.00E−5 Molar
Experimental: as §1

UACC-62 = assay: NCI in vitro DTP human cell line screen, UACC-62; assay type: cell-based; conditions: Melanoma, 1.00E−5 Molar
Experimental: as §1

SK-MEL-28 = assay: NCI in vitro DTP human cell line screen, SK-MEL-28; assay type: cell-based; conditions: Melanoma, 1.00E−5 Molar
Experimental: as §1

SN12C = assay: NCI in vitro DTP human cell line screen, SN12C; assay type: cell-based; conditions: Renal Cancer, 1.00E−5 Molar
Experimental: as §1

SR = assay: NCI in vitro DTP human cell line screen, SR; assay type: cell-based; conditions: Leukemia, 1.00E−5 Molar
Experimental: as §1

HL-60(TB) = assay: NCI in vitro DTP human cell line screen, HL-60(TB); assay type: cell-based; conditions: Leukemia, 1.00E−5 Molar
Experimental: as §1

NCI-H226 = assay: NCI in vitro DTP human cell line screen, NCI-H226; assay type: cell-based; conditions: Non-Small Cell Lung Cancer, 1.00E−5 Molar
Experimental: as §1

PC-3 = assay: NCI in vitro DTP human cell line screen, PC-3; assay type: cell-based; conditions: Prostate Cancer, 1.00E−5 Molar
Experimental: as §1

NCI-H522 = assay: NCI in vitro DTP human cell line screen, NCI-H522; assay type: cell-based; conditions: Non-Small Cell Lung Cancer, 1.00E−5 Molar
Experimental: as §1

CAKI-1 = assay: NCI in vitro DTP human cell line screen, CAKI-1; assay type: cell-based; conditions: Renal Cancer, 1.00E−5 Molar
Experimental: as §1

M14 = assay: NCI in vitro DTP human cell line screen, M14; assay type: cell-based; conditions: Melanoma, 1.00E−5 Molar
Experimental: as §1

TK-10 = assay: NCI in vitro DTP human cell line screen, TK-10; assay type: cell-based; conditions: Renal Cancer, 1.00E−5 Molar
Experimental: as §1

BT-549 = assay: NCI in vitro DTP human cell line screen, BT-549; assay type: cell-based; conditions: Breast Cancer, 1.00E−5 Molar
Experimental: as §1

UO-31 = assay: NCI in vitro DTP human cell line screen, UO-31; assay type: cell-based; conditions: Renal Cancer, 1.00E−5 Molar
Experimental: as §1

EKVX = assay: NCI in vitro DTP human cell line screen, EKVX; assay type: cell-based; conditions: Non-Small Cell Lung Cancer, 1.00E−5 Molar
Experimental: as §1

O=c1c2ccccc2sc2c(Cl)c(SCc3ccc(Cl)cc3)ccc12 [No. 26, 4-Chloro-3-(4-chlorobenzylthio)-9H-thioxanthen-9-one]
Growth Percent (T-47D): 87.73%
Growth Percent (SF-268): 101.57%
Growth Percent (DU145): 108.56%
Growth Percent (786-0): 106.48%
Growth Percent (LOX IMVI): 97.16%
Growth Percent (NCI-H322M): 101.60%
Growth Percent (HT29): 103.09%
cell viabilities of A3 cell lines (MTT assay) (A3 cell lines): 62.4%
Growth Percent (UACC-257): 92.94%
Growth Percent (SNB-75): 96.90%
Growth Percent (MDA-MB-435): 108.59%
Growth Percent (HOP-62): 89.02%
Growth Percent (MCF7): 94.48%
Growth Percent (NCI/ADR-RES): 100.89%
Growth Percent (SK-MEL-2): 90.37%
Growth Percent (SK-MEL-5): 101.76%
Growth Percent (RXF 393): 109.38%
Growth Percent (K562): 113.64%
Growth Percent (NCI-H460): 106.85%
Growth Percent (KM12): 107.42%
Growth Percent (HOP-92): 69.89%
Growth Percent (SW-620): 105.00%
Growth Percent (SF-295): 112.42%
Growth Percent (SNB-19): 96.85%
Growth Percent (NCI-H23): 96.57%
Growth Percent (OVCAR-4): 107.67%
Growth Percent (RPMI-8226): 91.09%
Growth Percent (HCT-116): 96.31%
Growth Percent (MOLT-4): 96.00%
cell viabilities of A control cell lines (MTT assay) (A control cell lines): 96.8 ± 4.29%
Growth Percent (ACHN): 91.82%
Growth Percent, Mean (60 cancer lines): 99.47%
Growth Percent (SF-539): 96.81%
Growth Percent (COLO 205): 108.87%
Growth Percent (UACC-62): 92.54%
Growth Percent (SK-MEL-28): 114.10%
Growth Percent (SN12C): 94.51%
Growth Percent (SR): 93.51%
Growth Percent (HL-60(TB)): 105.29%
Growth Percent (NCI-H226): 94.77%
Growth Percent (PC-3): 93.28%
Growth Percent (NCI-H522): 81.19%
Growth Percent (CAKI-1): 98.76%
Growth Percent (M14): 101.01%
Growth Percent (TK-10): 100.13%
Growth Percent (BT-549): 94.67%
Growth Percent (UO-31): 89.66%
Growth Percent (EKVX): 110.82%

COc1ccc(CSc2ccc3c(=O)c4ccccc4sc3c2Cl)cc1 [No. 27, 4-Chloro-3-(4-methoxybenzylthio)-9H-thioxanthen-9-one]
Growth Percent (T-47D): 88.81%
Growth Percent (SF-268): 101.32%
Growth Percent (DU145): 114.70%
Growth Percent (786-0): 100.89%
Growth Percent (LOX IMVI): 101.59%
Growth Percent (NCI-H322M): 95.82%
Growth Percent (HT29): 108.69%
cell viabilities of A3 cell lines (MTT assay) (A3 cell lines): 101 ± 2.95%
Growth Percent (UACC-257): 100.47%
Growth Percent (SNB-75): 97.97%
Growth Percent (MDA-MB-435): 107.44%
Growth Percent (HOP-62): 110.61%
Growth Percent (MCF7): 101.77%
Growth Percent (NCI/ADR-RES): 106.73%
Growth Percent (SK-MEL-2): 104.94%
Growth Percent (SK-MEL-5): 101.55%
Growth Percent (RXF 393): 117.83%
Growth Percent (K562): 114.13%
Growth Percent (NCI-H460): 107.02%
Growth Percent (KM12): 108.05%
Growth Percent (HOP-92): 78.71%
Growth Percent (SW-620): 106.98%
Growth Percent (SF-295): 107.03%
Growth Percent (SNB-19): 97.16%
Growth Percent (NCI-H23): 99.92%
Growth Percent (OVCAR-4): 104.27%
Growth Percent (RPMI-8226): 103.69%
Growth Percent (HCT-116): 95.54%
Growth Percent (MOLT-4): 102.31%
cell viabilities of A control cell lines (MTT assay) (A control cell lines): 50.5%
inhibition effect on A control cell line (in words) (A control cell lines; summary of MTT cell viabilities): inhibition effect
Growth Percent (ACHN): 104.71%
Growth Percent, Mean (60 cancer lines): 103.13%
Growth Percent (SF-539): 106.78%
Growth Percent (COLO 205): 99.12%
Growth Percent (UACC-62): 91.61%
Growth Percent (SK-MEL-28): 118.75%
Growth Percent (SN12C): 94.49%
Growth Percent (SR): 84.48%
Growth Percent (HL-60(TB)): 121.13%
Growth Percent (NCI-H226): 100.46%
Growth Percent (PC-3): 93.39%
Growth Percent (NCI-H522): 94.65%
Growth Percent (CAKI-1): 102.18%
Growth Percent (M14): 99.76%
Growth Percent (TK-10): 105.39%
Growth Percent (BT-549): 93.21%
Growth Percent (UO-31): 102.53%
Growth Percent (EKVX): 114.01%

— patent US8410161B2, “Thioxanthone ring system derivatives” (National Defense Medical Center, priority 2010, dated 2013)
